Key:
Type in all cases: physicochemical
[1] = Solubility in 20° C. water (visual check of dissolution); conditions: distilled water at 20° C., stirred 1 minute per addition
Procedure: Dissolution was visually checked after the organic phosphorus-based compound was added little by little to 100 g of distilled water adjusted to 20° C. and stirred for 1 minute for each addition.

[2] = Particle size distribution by Microtrack HRA
Procedure: The volume standard median diameter (vi), the maximum particle diameter (vii) and the standard deviation (viii) can be measured by using the microtrack of Nikkiso Co., Ltd. and measurement conditions that the particles should be transparent and that the particle shape should be nonspherical.
They were measured by using the Microtrack HRA of Nikkiso Co., Ltd. The measurement conditions are that the particles should be transparent, the particle shape should be nonspherical, the refractive index of the particles should be 1.60, and the refractive index of the solvent should be 1.33.

[3] = ΔpH value of filtrate after stirring compound in dispersant solution; conditions: 1 g compound in 1% phenol type nonionic surfactant solution, |pH1−pH2|
Procedure: The ΔpH value can be measured by the following method using a commercially available pH measuring instrument. 1 g of a dispersant is added to 99 g of distilled water used for the measurement and stirred to measure the pH of the obtained aqueous solution (the measurement value is designated as pH1). After 1 g of the organic phosphorus-based compound (1) of the present invention is added to the aqueous solution and stirred for 1 minute, the organic phosphorus-based compound (1) is filtered. The pH of the obtained filtrate is measured (the measurement value is designated as pH2). The ΔpH value of the present invention is calculated from the following equation (I). ΔpH value=|pH1−pH2| (I) (vi) Volume Standard Median Diameter, (vii) Maximum Particle Diameter, (viii) Standard Deviation
This was measured by the following method using a pH measuring instrument (HORIBA pH METER D-52 of HORIBA, LTD.). 1 g of a dispersant (phenol type nonionic surfactant) was added to 99 g of distilled water used for the measurement and stirred to measure the pH of the obtained aqueous solution (the measurement value was designated as pH1). After 1 g of the organic phosphorus-based compound was added to the aqueous solution and stirred for 1 minute, the organic phosphorus-based compound was filtered. The pH of the obtained filtrate was measured (the measurement value was designated as pH2). The ΔpH value was calculated from the following equation (I). ΔpH value=|pH1−pH2| (I) (vi) Volume Standard Median Diameter, (vii) Maximum Particle Diameter, (viii) Standard Deviation

[4] = Storage stability of processing agent (fire retardant for fibers); parameters: key: ◯: no agglomeration and no sedimentation are seen by visual checking; X: agglomeration and sedimentation are seen by visual checking; conditions: processing agent with 30 parts compound per 100 parts polyacrylic acid ester emulsion, 25° C. for 24 hours
Procedure: After interior car sheet cloth for automobiles was coated with the following processing liquid, its flame resistance and physical properties were tested. (test cloth): Polyester 100% woven car sheet cloth (weight of 300 g/m^2) was used. (processing agent): This was prepared by adding 1.5 parts of a nonionic surfactant, 1 part of a polyacrylic acid-based thickener and 0.5 part of 25% ammonia water to 100 parts of a polyacrylic acid ester emulsion having a solid content of 45% and further adding 30 parts of each of the above organic phosphorus-based compounds (FR-1 to FR-6) under agitation. The obtained processing agent was left to stand at 25° C. for 24 hours to evaluate its storage stability based on the following criteria.
◯: no agglomeration and no sedimentation are seen by visual checking
X: agglomeration and sedimentation are seen by visual checking

Structure (SMILES)	(ii) Solubility in 20° C. water [1]	(vi) Volume standard median diameter [2] [μm]	(vii) Maximum particle diameter [2] [μm]	(v) ΔpH value [3]	Stability [4]
O=P1(Cc2ccccc2)OCC2(CO1)COP(=O)(Cc1ccccc1)OC2 (single isomer, unassigned) [FR-1, 2,4,8,10-tetraoxa-3,9-diphosphaspiro[5.5]undecane,3,9-dibenzyl-3,9-dioxide]	0.01 g/100 g of water	18	150	0.5	◯
O=P1(Cc2ccccc2)OCC2(CO1)COP(=O)(Cc1ccccc1)OC2 (single isomer, unassigned) [FR-5, 2,4,8,10-tetraoxa-3,9-diphosphaspiro[5.5]undecane, 3,9-dibenzyl-3,9-dioxide]	0.01 g/100 g of water	40	300	0.5	◯
O=P1(Cc2ccccc2)OCC2(CO1)COP(=O)(Cc1ccccc1)OC2 (single isomer, unassigned) [FR-6, 2,4,8,10-tetraoxa-3,9-diphosphaspiro[5.5]undecane,3,9-dibenzyl-3,9-dioxide]	0.01 g/100 g of water	21	140	1.3	X
CC(c1ccccc1)P1(=O)OCC2(CO1)COP(=O)(C(C)c1ccccc1)OC2 (stereo not drawn) [FR-2, 2,4,8,10-tetraoxa-3,9-diphosphaspiro[5.5]undecane,3,9-diα-methylbenzyl-3,9-dioxide]	0.01 g/100 g of water	20	160	0.6	◯
O=P1(CCc2ccccc2)OCC2(CO1)COP(=O)(CCc1ccccc1)OC2 (stereo not drawn) [FR-3, 2,4,8,10-tetraoxa-3,9-diphosphaspiro[5.5]undecane,3,9-di(2-phenylethyl)-3,9-dioxide]	0.01 g/100 g of water	22	140	0.3	◯
O=P1(C(c2ccccc2)c2ccccc2)OCC2(CO1)COP(=O)(C(c1ccccc1)c1ccccc1)OC2 (stereo not drawn) [FR-4, 2,4,8,10-tetraoxa-3,9-diphosphaspiro[5.5]undecane, 3,9-bis(diphenylmethyl)-3,9-dioxide]	0.01 g/100 g of water	25	180	0.7	◯
